Assay results: patent US6630501B1, “Phosphinic pseudo-peptides that may be used as matrix zinc metalloprotease inhibitors” (Commissariat a l'energie Atomique, priority 1999, dated 2003)

Columns and labels:
[1] = target: T1, MMP-11 (stromelysin-3, mST3) (Mus musculus, UniProt Q02853); assay: Ki determination with fluorogenic synthetic substrates, recombinant MMP-11; assay type: biochemical, murine; details: for Ki: Tris/50 mM HCl buffer, pH 6.8, 10 mM CaCl2, 25° C., read-out: affinity constant Ki, MMP-11 mST3
T1 construct: made in house; host or cells: E. coli
T1 sequence (Q02853 102-492): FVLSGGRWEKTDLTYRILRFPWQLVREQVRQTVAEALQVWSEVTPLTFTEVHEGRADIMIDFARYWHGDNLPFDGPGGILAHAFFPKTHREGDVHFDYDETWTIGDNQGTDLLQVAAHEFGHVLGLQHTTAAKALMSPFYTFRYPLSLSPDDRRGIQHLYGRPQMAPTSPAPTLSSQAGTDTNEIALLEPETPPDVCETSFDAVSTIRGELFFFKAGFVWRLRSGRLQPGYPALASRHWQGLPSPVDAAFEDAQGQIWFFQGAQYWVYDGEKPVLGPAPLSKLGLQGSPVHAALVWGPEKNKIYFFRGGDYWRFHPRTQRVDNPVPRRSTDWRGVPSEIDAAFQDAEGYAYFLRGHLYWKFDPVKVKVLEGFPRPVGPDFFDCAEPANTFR
Method: (§1) The MMPs used were produced in recombinant form, in an E. coli expression system, and then purified using different types of chromatographies. Apart from stromelysin-3 (MMP-11), the MMPs produces correspond to human sequences. The Stromelysin-3 used in this study corresponds to the murine form.
(§2) The activity of each MMP was determined using two fluorogenic synthetic substrates. The cutoff of said substrates, which generates a fluorescent signal proportional to the quantity of split substrate, enables a precise determination of the kinetic parameters. The affinity constants Ki were calculated using the equation of Horowitz et al, Proc. Natl. Acad. Sci. USA, 1987, 84, p. 6654-6658 [14], accounting for the dependency of the percentage of inhibition measured experimentally according to the concentration of inhibitor, as a function of the enzyme and substrate concentration.
(§3) The experiments for conducted in a Tris/50 mM HCl buffer, pH 6.8, 10 mM CaCl2, 25° C.

[2] = target: T2, MMP-2 (Gel-A) (Homo sapiens, UniProt P08253); assay: Ki determination with fluorogenic synthetic substrates, recombinant MMP-2; assay type: biochemical; details: for Ki: Tris/50 mM HCl buffer, pH 6.8, 10 mM CaCl2, 25° C., read-out: affinity constant Ki, MMP-2 Gel-A; for inhibition at 2000 µM: read-out: percentage of inhibition, MMP-2
T2 construct: made in house; host or cells: E. coli
T2 sequence (P08253 110-660): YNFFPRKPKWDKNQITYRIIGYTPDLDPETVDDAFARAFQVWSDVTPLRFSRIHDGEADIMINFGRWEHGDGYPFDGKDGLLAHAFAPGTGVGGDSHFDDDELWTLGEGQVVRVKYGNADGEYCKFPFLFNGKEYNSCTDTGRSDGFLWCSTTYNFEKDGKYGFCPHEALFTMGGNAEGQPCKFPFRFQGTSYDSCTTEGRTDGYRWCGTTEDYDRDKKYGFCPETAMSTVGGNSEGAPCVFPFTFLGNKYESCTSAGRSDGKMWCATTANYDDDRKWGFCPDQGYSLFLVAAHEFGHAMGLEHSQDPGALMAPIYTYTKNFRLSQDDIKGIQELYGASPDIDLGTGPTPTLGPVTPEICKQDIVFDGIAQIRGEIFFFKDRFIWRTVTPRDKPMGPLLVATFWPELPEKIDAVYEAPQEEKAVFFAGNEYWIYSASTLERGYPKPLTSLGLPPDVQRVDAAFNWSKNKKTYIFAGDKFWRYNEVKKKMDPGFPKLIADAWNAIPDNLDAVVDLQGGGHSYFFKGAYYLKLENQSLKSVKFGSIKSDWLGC
Method: as §1, §2, §3

[3] = target: T3, MMP-9 (Gel-B) (Homo sapiens, UniProt P14780); assay: Ki determination with fluorogenic synthetic substrates, recombinant MMP-9; assay type: biochemical; details: for Ki: Tris/50 mM HCl buffer, pH 6.8, 10 mM CaCl2, 25° C., read-out: affinity constant Ki, MMP-9 Gel-B; for inhibition at 2000 µM: read-out: percentage of inhibition, MMP-9
T3 construct: made in house; host or cells: E. coli
Method: as §1, §2, §3

[4] = target: T4, MMP-14 (MT1-MMP) (Homo sapiens, UniProt P50281); assay: Ki determination with fluorogenic synthetic substrates, recombinant MMP-14; assay type: biochemical; details: for Ki: Tris/50 mM HCl buffer, pH 6.8, 10 mM CaCl2, 25° C., read-out: affinity constant Ki, MMP-14 MT1-MMP
T4 construct: made in house; host or cells: E. coli
Method: as §1, §2, §3

[5] = target: T5, MMP-1 (HFC) (Homo sapiens, UniProt P03956); assay: Ki determination with fluorogenic synthetic substrates, recombinant MMP-1; assay type: biochemical; details: for inhibition at 1 µM: @ 1 μM inhibitor; for inhibition at 1 µM / inhibition at 2000 µM: read-out: percentage of inhibition, MMP-1
T5 construct: made in house; host or cells: E. coli
T5 sequence (P03956 100-469): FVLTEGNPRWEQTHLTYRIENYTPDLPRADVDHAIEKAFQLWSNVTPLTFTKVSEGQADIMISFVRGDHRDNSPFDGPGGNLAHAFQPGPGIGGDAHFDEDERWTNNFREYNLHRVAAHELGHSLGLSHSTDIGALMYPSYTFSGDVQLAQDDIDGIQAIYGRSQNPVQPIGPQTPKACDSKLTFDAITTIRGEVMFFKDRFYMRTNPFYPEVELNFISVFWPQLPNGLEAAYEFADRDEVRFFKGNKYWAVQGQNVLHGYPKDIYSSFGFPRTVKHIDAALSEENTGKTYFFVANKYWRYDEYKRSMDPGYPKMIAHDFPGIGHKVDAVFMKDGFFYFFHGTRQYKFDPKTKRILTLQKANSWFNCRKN
Method: as §1, §2, §3

[6] = target: T6, MMP-7 (Matrilysin) (Homo sapiens, UniProt P09237); assay: Ki determination with fluorogenic synthetic substrates, recombinant MMP-7; assay type: biochemical; details: for inhibition at 1 µM: @ 1 μM inhibitor, read-out: percentage of inhibition, MMP-7; for Ki: Tris/50 mM HCl buffer, pH 6.8, 10 mM CaCl2, 25° C., read-out: affinity constant Ki, MMP-7 Matrilysin
T6 construct: made in house; host or cells: E. coli
T6 sequence (P09237 95-267): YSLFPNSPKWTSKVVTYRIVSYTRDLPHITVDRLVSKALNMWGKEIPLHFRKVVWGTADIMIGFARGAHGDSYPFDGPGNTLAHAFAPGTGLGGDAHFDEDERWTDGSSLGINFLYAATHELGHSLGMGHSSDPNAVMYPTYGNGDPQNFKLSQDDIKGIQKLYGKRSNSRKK
Method: as §1, §2, §3

[7] = target: T7, MMP-8 (HNC) (Homo sapiens, UniProt P22894); assay: Ki determination with fluorogenic synthetic substrates, recombinant MMP-8; assay type: biochemical; details: for Ki: Tris/50 mM HCl buffer, pH 6.8, 10 mM CaCl2, 25° C., read-out: affinity constant Ki, MMP-8 HNC
T7 construct: made in house; host or cells: E. coli
Method: as §1, §2, §3

T7 sequence (P22894 101-467): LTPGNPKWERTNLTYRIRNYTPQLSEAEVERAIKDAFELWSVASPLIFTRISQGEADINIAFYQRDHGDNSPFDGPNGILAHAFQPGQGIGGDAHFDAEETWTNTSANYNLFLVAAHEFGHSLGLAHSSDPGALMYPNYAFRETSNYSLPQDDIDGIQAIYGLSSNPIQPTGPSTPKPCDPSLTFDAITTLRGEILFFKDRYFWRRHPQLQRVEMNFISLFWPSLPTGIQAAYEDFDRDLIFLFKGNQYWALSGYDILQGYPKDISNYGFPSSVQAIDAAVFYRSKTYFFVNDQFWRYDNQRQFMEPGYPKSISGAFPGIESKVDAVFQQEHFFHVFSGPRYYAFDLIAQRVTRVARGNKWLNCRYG
T3 sequence (P14780 94-707): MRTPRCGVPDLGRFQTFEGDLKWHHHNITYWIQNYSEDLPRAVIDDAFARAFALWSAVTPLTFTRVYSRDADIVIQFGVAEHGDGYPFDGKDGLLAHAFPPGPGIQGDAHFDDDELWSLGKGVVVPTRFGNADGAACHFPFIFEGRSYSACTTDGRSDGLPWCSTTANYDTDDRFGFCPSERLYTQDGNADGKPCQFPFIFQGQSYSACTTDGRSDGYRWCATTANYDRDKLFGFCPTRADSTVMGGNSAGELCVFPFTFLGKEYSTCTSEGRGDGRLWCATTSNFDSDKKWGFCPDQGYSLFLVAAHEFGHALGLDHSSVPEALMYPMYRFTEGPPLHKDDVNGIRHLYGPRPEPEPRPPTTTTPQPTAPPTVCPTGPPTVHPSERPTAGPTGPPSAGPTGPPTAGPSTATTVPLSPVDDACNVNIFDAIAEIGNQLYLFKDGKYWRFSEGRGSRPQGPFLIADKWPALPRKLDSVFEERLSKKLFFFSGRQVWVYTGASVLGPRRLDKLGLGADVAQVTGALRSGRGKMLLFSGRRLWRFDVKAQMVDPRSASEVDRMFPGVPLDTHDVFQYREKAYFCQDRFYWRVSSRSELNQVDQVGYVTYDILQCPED

Row | Compound | Ki [1] [nM] | Ki [2] [nM] | Ki [3] [nM] | Ki [4] [nM] | Ki [7] [nM] | inhibition at 2000 µM ([5]; @ 2 mM inhibitor) [%] | also measured
1 | CC(C)CC(CP(=O)(O)C(Cc1ccccc1)NC(=O)OCc1ccccc1)C(=O)NC(Cc1c[nH]c2ccccc12)C(N)=O (stereo not shown) [Compound 13] | 22 | 202 | 65 | 192 | 40 | – | percentage of inhibition, MMP-1 ([5]; @ 2 mM inhibitor): 45% @ 2 mM; Ki [6]: 210 nM
2 | NC(=O)C(Cc1c[nH]c2ccccc12)NC(=O)C(COCc1ccccc1)CP(=O)(O)C(Cc1ccccc1)NC(=O)OCc1ccccc1 (stereo not shown) [Compound 17] | 16 | 85 | 55 | 545 | 20 | 9 | –
3 | NC(=O)[C@@H](Cc1c[nH]c2ccccc12)NC(=O)C(CCCc1ccccc1)CP(=O)(O)C(Cc1ccccc1)NC(=O)OCc1ccccc1 (stereo partly shown) [Compound 23] | – | – | – | – | – | – | percentage of inhibition, MMP-11 ([1]; @ 1 mM inhibitor): 1% @ 1 mM; percentage of inhibition, MMP-2 ([2]; @ 2 mM inhibitor): 6% @ 2 mM; percentage of inhibition, MMP-9 ([3]; @ 2 mM inhibitor): 14% @ 2 mM; percentage of inhibition, MMP-14 ([4]; @ 10 mM inhibitor): 10% @ 10 mM; percentage of inhibition, MMP-1 ([5]; @ 10 mM inhibitor): 3% @ 10 mM; percentage of inhibition, MMP-7 ([6]; @ 50 mM inhibitor): 18% @ 50 mM; percentage of inhibition, MMP-8 ([7]; @ 1 mM inhibitor): 2% @ 1 mM
4 | CC(CP(=O)(O)C(Cc1ccccc1)NC(=O)OCc1ccccc1)C(=O)NC(Cc1c[nH]c2ccccc12)C(N)=O (stereo not shown) [Compound 12] | 2670 | – | – | – | – | 20 | inhibition at 2000 µM ([2]; @ 2 mM inhibitor): 0%; inhibition at 2000 µM ([3]; @ 2 mM inhibitor): 0%; inhibition at 10000 µM ([4]; @ 10 mM inhibitor, read-out: percentage of inhibition, MMP-14): 0%; inhibition at 1000 µM ([7]; @ 1 mM inhibitor, read-out: percentage of inhibition, MMP-8): 9%
5 | CC(NC(=O)C(CCCc1ccccc1)CP(=O)(O)C(Cc1ccccc1)NC(=O)OCc1ccccc1)C(N)=O (stereo not shown) [Compound 22] | – | – | – | 2960 | 240 | 9 | inhibition at 1000 µM ([1]; @ 1 mM inhibitor, read-out: percentage of inhibition, MMP-11): 20%; inhibition at 2000 µM ([2]; @ 2 mM inhibitor): 31%; inhibition at 2000 µM ([3]; @ 2 mM inhibitor): 45%
6 | CC(NC(=O)OCc1ccccc1)P(=O)(O)CC(CCCc1ccccc1)C(=O)NC(Cc1c[nH]c2ccccc12)C(N)=O (stereo not shown) [Compound 9] | 100 | 31 | 23 | 92 | 8 | 30 | factor by which activity on MMP-8 is multiplied when R3 changes from benzyl to phenylpropyl ([7]; compound 9 in relation to compound 7): 30
7 | NC(=O)C(Cc1c[nH]c2ccccc12)NC(=O)C(CCc1ccccc1)CP(=O)(O)C(Cc1ccccc1)NC(=O)OCc1ccccc1 (stereo not shown) [Compound 14] | 8.8 | 275 | 110 | 660 | 45 | 10 | inhibitory power on MMP-11, in words [1]: very powerful
8 | CC(NC(=O)OCc1ccccc1)P(=O)(O)CC(COCc1ccccc1)C(=O)NC(Cc1c[nH]c2ccccc12)C(N)=O (stereo not shown) [Compound 10] | 175 | 250 | 44 | 550 | 19 | 15 | –
9 | CC(NC(=O)OCc1ccccc1)P(=O)(O)CC(CCc1ccccc1)C(=O)NC(Cc1c[nH]c2ccccc12)C(N)=O (stereo not shown) [Compound 8] | 51 | 80 | 60 | 270 | 20 | 23 | –
10 | CC(NC(=O)OCc1ccccc1)P(=O)(O)CC(Cc1ccccc1)C(=O)NC(Cc1c[nH]c2ccccc12)C(N)=O (stereo not shown) [Compound 7] | 350 | 250 | 280 | 2030 | 240 | 24 | –
11 | CC(NC(=O)OCc1ccccc1)P(=O)(O)CC(CSCc1ccccc1)C(=O)NC(Cc1c[nH]c2ccccc12)C(N)=O (stereo not shown) [Compound 11] | 36 | 14 | 6 | 26 | – | 45 | –

Continued by falling Ki [1], values first:

Row | Ki [1] [nM] | Ki [2] [nM] | Ki [3] [nM] | Ki [4] [nM] | Ki [7] [nM] | inhibition at 2000 µM ([5]; @ 2 mM inhibitor) [%] | Compound | also measured
12 | 8 | 11 | 10 | 41 | 5.5 | – | CC(NC(=O)OCc1ccccc1)C(=O)NC(Cc1ccccc1)P(=O)(O)CC(CCCc1ccccc1)C(=O)NC(Cc1c[nH]c2ccccc12)C(N)=O (stereo not shown) [Compound 34] | inhibition at 1 µM [5]: 24%; inhibition at 1 µM [6]: 18%
13 | 5 | 20 | 10 | 105 | 2.5 | 23 | NC(=O)[C@H](Cc1c[nH]c2ccccc12)NC(=O)C(CCCc1ccccc1)CP(=O)(O)C(Cc1ccccc1)NC(=O)OCc1ccccc1 (mixture of isomers) [Compound 15, ZPheΨ(PO2CpH2)pPheTrpNH2] | –
14 | 5 | 8 | 10 | 40 | 2.5 | – | NC(=O)C(Cc1c[nH]c2ccccc12)NC(=O)C(CCCc1ccccc1)CP(=O)(O)C(Cc1ccccc1)NC(=O)COCc1ccccc1 (stereo not shown) [Compound 26] | inhibition at 1 µM [5]: 28%; inhibition at 1 µM [6]: 33%
15 | 1.5 | 10 | 8 | 41 | – | – | NC(=O)C(Cc1c[nH]c2ccccc12)NC(=O)C(CCCc1ccccc1)CP(=O)(O)C(Cc1ccccc1)NC(=O)c1cc2ccccc2[nH]1 (stereo not shown) [Compound 30] | inhibition at 1 µM [5]: 87%; Ki [6]: 605 nM
16 | 0.9 | 24 | 7 | 32 | 5 | – | NC(=O)C(Cc1c[nH]c2ccccc12)NC(=O)C(CCCc1ccccc1)CP(=O)(O)C(Cc1ccccc1)NC(=O)c1cc2c(Cl)cc(Cl)cc2[nH]1 (stereo not shown) [Compound 31] | inhibitory power on MMP-11, in words [1]: very powerful inhibitor; Ki ([5]; Tris/50 mM HCl buffer, pH 6.8, 10 mM CaCl2, 25° C., read-out: affinity constant Ki, MMP-1 HFC): 36 nM; Ki [6]: 117 nM
